The source of these data is US20020065279A1, “Arylsulfonic acid salts of pyrimidine-based antiviral” (priority 2000, published 2002).

Structures can show the parent of a compound that is named as a salt. Where two headings read alike, the source gives them in different places.

Data set [1] in a line: Acid selection: salt formation of compound 1 with acids. It counts as physicochemical. The source says: In order to prepare suitable formulations of the compounds of formula I below, standard salt formation methods were pursued. […] These acids represent most of the pharmaceutical salts used today.
For data set [2] the following is noted: first printed pKa of the acid; cited from earlier work.
The nature of data set [3]: Thermal stability of salts at 45° C. (HPLC purity). It counts as physicochemical.
Data set [4] is described as follows: Aqueous solubility of compound 1 free base and salts. It counts as physicochemical. From the text: A variety of pyrimidine-based antiviral compounds have been described in co-pending U.S. Ser. No. 09/249,64 1, filed Feb. 12, 1999 and in PCT application US99/03136. The development of a pyrimidine-based antiviral agent (such as those described hereinbelow) for clinical use required the identification of a salt form with optimal physical and chemical properties. The most critical properties included crystallinity, aqueous solubility, light stability and thermal stability. As noted above, applications U.S. Ser. No. 09/249,641 and PCT US99/03136 describe pyrimidine derivatives both as free bases and as their pharmaceutically acceptable salts. Among the salts listed for this group of compounds exre hydrochloric, hydrobromic, nitric, carbonic, monohydrogencarbonic, phosphoric, monohydrogenphosphoric, dihydrogenphosphoric, sulfuric, monohydrogensulfuric, hydriodic, or phosphorous acids and the like, as well as the salts derived from organic acids like acetic, propionic, isobutyric, oxalic, maleic, malonic, benzoic, succinic, suberic, fumaric, mandelic, phthalic, benzenesulfonic, p-tolylsulfonic, citric, tartaric, miethanesulfonic, and the like. Also included are salts of amino acids such as arginate and the like, and salts of organic acids like glucuronic or galactunoric acids and the like.
The besilate and tosylate salts represent improvement over the free base in solubility as described in Table 2 below. The increase in solubility represents a significant advantage over the free base for formulations that are suitable for therapeutic administration.

Data set [5] can be described thus: Aqueous stability of salts in deionized water (HPLC, UV 254.4 nm). The format is physicochemical. As for the experimental part:
The tosylate salts was evaluated at a concentration of 4.7 mg/mL and the besilate salt was evaluated at a concentration of 3.2 mg/mL. Stability was monitored via HPLC using UV detection at 254.4 nm.

Data set [6] is described as follows: Light stability of salts (ambient light and window glass filtered sunlight, HPLC purity). The format is physicochemical.
The nature of data set [7]: pKa of the free base of compound 1.

Turning to Benzenesulfonic, the “Result (salt formation with compound 1)” value in data set [1] (Solvent CH2Cl2/hexanes), in data set [1] (Solvent CH3CN), in data set [1] (Solvent CHCl3/hexanes), in data set [1] (Solvent EtOAc/MeOH), in data set [1] (Solvent EtOH) and in data set [1] (Solvent EtOH/hexanes) was “Yellow crystals” throughout. Further, in data set [2], the “pKa (acid)” value is 1.6.
Regarding `Cc1nc(N2CCOCC2C)nc(-n2ccnc2)c1[N+](=O)[O-]` (stereo not drawn) [Besilate Salt, 2-(3S-3-methylmorpholino)-4-(imidazol-1-yl)-6-methyl-5-nitropyrimidine benzenesulfonate], the “purity %, HPLC (thermal stability)” value in data set [3] (8 hours), in data set [3] (24 hours), in data set [3] (48 hours), in data set [3] (72 hours), in data set [3] (170 hours) and in data set [3] (250 hours) was 100% throughout. Also, the “purity %, HPLC (thermal stability)” value in data set [3] (1632 hours) was 100%. Besides, the Aqueous Solubility – broadly, how much of the substance goes into solution per volume – in data set [4] (listed as Resilate Salt) is 44 mg/mL. Further, the “purity %, HPLC (aqueous stability)” value in data set [5] (3.2 mg/mL, 48 hours) was 100%; in data set [5] (3.2 mg/mL, 147 hours) it was 100%; in data set [5] (3.2 mg/mL, 171 hours), 97.4%; in data set [5] (3.2 mg/mL, 201 hours), 91.7%; in data set [5] (3.2 mg/mL, 216 hours) it was 91.7%; in data set [5] (3.2 mg/mL, 1560 hours) it was 61.4%. Further, the “purity %, HPLC (light stability)” value was 100% in data set [6] (24 hours), 100% in data set [6] (48 hours), 97.3% in data set [6] (216 hours) and 93.1% in data set [6] (1560 hours).
As for `O=CO` [Formic], the “Result (salt formation with compound 1)” value in data set [1] (Solvent EtOH) is reported as “No salt formed”.
`CC(=O)O` [Acetic]: in data set [1] (Solvent Et2O), the “Result (salt formation with compound 1)” value is reported as “No salt formed”.
Turning to `O=S(=O)(O)O` [Sulfuric], the “Result (salt formation with compound 1)” value in data set [1] (Solvent EtOH) is “Decomposition”.
On to `O=C(O)c1ccccc1` [Benzoic], for which the “Result (salt formation with compound 1)” value in data set [1] (Solvent Et2O) and in data set [1] (Solvent EtOAc) was “No salt formed” each time.
`NC(=O)CCC(=O)O` [Succinamic]: the “Result (salt formation with compound 1)” value in data set [1] (Solvent EtOAc) and in data set [1] (Solvent EtOAc/MeOH) was “No salt formed” each time. Further, the “pKa (acid)” value in data set [2] is listed as 4.4.
Consider `CS(=O)(=O)O` [Methanesulfonic], for which the “Result (salt formation with compound 1)” value in data set [1] (Solvent CH2Cl2), in data set [1] (Solvent Et2O), in data set [1] (Solvent EtOAc), in data set [1] (Solvent EtOAc/CH2Cl2) and in data set [1] (Solvent EtOAc/hexanes) was “Decomposition” in each case.
For `O=C(O)c1ccccc1O` [Salicylic], the “Result (salt formation with compound 1)” value in data set [1] (Solvent Et2O) and in data set [1] (Solvent EtOAc) was “No salt formed” throughout.
Consider `Br` [Hydrobromic], for which, in data set [1] (Solvent EtOH), the “Result (salt formation with compound 1)” value is “Decomposition”.
As to `O=C(O)/C=C\C(=O)O` [Maleic], the “Result (salt formation with compound 1)” value in data set [1] (Solvent Et2O) and in data set [1] (Solvent EtOAc) was “No salt formed” in each case.
Take `Cc1nc(N2CCOCC2C)nc(-n2ccnc2)c1[N+](=O)[O-]` (stereo not drawn) [Tosylate Salt, 2-(3S-3-methylmorphoamino)-4-(imidazol-1-yl)-6-methyl-5-nitropyrimidine p-toluenesulfonate]: the “purity %, HPLC (thermal stability)” value in data set [3] (8 hours), in data set [3] (24 hours), in data set [3] (48 hours), in data set [3] (72 hours), in data set [3] (170 hours) and in data set [3] (250 hours) was 100% throughout. Also, the “purity %, HPLC (thermal stability)” value in data set [3] (1632 hours) turned out to be 100%. Moreover, in data set [4], the “Aqueous Solubility” value worked out at 36 mg/mL. The “purity %, HPLC (aqueous stability)” value in data set [5] (4.7 mg/mL, 48 hours) was 100%; in data set [5] (4.7 mg/mL, 147 hours), 100%; in data set [5] (4.7 mg/mL, 171 hours), 97.3%; in data set [5] (4.7 mg/mL, 201 hours), 93.1%; in data set [5] (4.7 mg/mL, 216 hours), 92.8%; in data set [5] (4.7 mg/mL, 1560 hours) it was 64.6%. In addition, the “purity %, HPLC (light stability)” value is 100% in data set [6] (24 hours), 100% in data set [6] (48 hours), 97.6% in data set [6] (216 hours) and 86.6% in data set [6] (1560 hours).
In the case of `O=C(O)c1cccc(O)c1` [3-Hydroxybenzoic], the “Result (salt formation with compound 1)” value in data set [1] (Solvent EtOAc) is “No salt formed”.
Regarding `O=[N+]([O-])O` [Nitric], the “Result (salt formation with compound 1)” value in data set [1] (Solvent EtOH) was “Decomposition”. The “pKa (acid)” value in data set [2] is −1.4.
`Cc1ccc(S(=O)(=O)O)cc1` [Toluenesulfonic]: the “Result (salt formation with compound 1)” value in data set [1] (Solvent CHCl3/hexanes) and in data set [1] (Solvent EtOAc) was “Yellow crystals” in each case.
As to `O=C(O)[C@@H](O)[C@H](O)C(=O)O` [D-Tartaric], the “Result (salt formation with compound 1)” value in data set [1] (Solvent EtOAc) and in data set [1] (Solvent MeOH) was “No salt formed” in each case.
In the case of `Cl` [Hydrochloric], the “Result (salt formation with compound 1)” value in data set [1] (Solvent CH3CN), in data set [1] (Solvent CHCl3), in data set [1] (Solvent Et2O), in data set [1] (Solvent EtOAc), in data set [1] (Solvent IPA) and in data set [1] (Solvent MeOH) was “Decomposition” in each case.
With `O=C(O)CC(O)(CC(=O)O)C(=O)O` [Citric], the “Result (salt formation with compound 1)” value in data set [1] (Solvent Et2O), in data set [1] (Solvent EtOAc) and in data set [1] (Solvent EtOAc/MeOH) was “No salt formed” each time.
Take `Cc1nc(N2CCOCC2C)nc(-n2ccnc2)c1[N+](=O)[O-]` (stereo not drawn) [Compound 1, 2-(3S-3-methylmorpholino)-4-(imidazol-1-yl)-6-methyl-5-nitropyrimidine]: the “Aqueous Solubility” value in data set [4] was 1.68 mg/mL. For the same compound, in data set [7], the pKa (in general, the negative logarithm of the acid dissociation constant) was 4.09.
Consider Fumaric, for which, in data set [1] (Solvent EtOAc/MeOH), the “Result (salt formation with compound 1)” value is “No salt formed”.
In the case of L-Tartaric, the “Result (salt formation with compound 1)” value in data set [1] (Solvent Et2O), in data set [1] (Solvent EtOAc), in data set [1] (Solvent EtOH) and in data set [1] (Solvent MeOH) was “No salt formed” in each case.
